# Measurements published in patent publication US20070212355A1 (priority 2005, published 2007).
# Columns and labels:
# mutated human GLP-2R = target: T1, mutated human GLP-2R (Homo sapiens, UniProt O95838, E512D/G511A/L513V); experiment: cAMP expression assay in HEK 293E clonal cell line expressing mutated human GLP-2R; type: cell-based; settings: assay set-up, vs control peptide
# T1 construct: expressed in transfected cells; host or cells: HEK 293E clonal cell line
# T1 sequence (O95838 1-553 G511A/E512D/L513V): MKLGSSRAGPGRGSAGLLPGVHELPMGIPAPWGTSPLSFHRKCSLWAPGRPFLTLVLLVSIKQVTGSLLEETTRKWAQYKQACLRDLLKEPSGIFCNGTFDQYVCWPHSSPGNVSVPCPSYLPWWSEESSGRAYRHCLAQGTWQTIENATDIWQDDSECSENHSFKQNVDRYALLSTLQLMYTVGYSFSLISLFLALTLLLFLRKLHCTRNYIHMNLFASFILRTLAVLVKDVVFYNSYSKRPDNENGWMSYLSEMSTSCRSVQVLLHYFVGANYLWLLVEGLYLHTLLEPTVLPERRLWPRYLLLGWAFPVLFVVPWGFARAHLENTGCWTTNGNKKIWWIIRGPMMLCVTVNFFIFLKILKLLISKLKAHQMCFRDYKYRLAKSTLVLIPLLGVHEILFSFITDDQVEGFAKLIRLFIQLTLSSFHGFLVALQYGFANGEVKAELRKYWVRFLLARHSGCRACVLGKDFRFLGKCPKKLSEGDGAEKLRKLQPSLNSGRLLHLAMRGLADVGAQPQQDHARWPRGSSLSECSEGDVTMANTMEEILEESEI
# Source text: To achieve this goal, a clonal cell line expressing a mutated human GLP-2R was generated by transfecting HEK 293E cells. The mutated human GLP-2R differs from the wild-type human GLP-2R (SEQ ID NO: 35) at three amino acid positions within the C-terminal intracellular region (SEQ ID NO: 36).
# The cAMP expression was quantitated using the cAMP Direct Screen System (Cat. No. CSD 200, Applied Biosystems, Bedford, Mass.).
# This assay was based on the cAMP Direct Screen System from Applied Biosystems utilizing a cell line expressing mutated huGLP-2R in HEK 293E cells. Peptide at concentrations ranging from 0.01 nM to 1.0 uM in PBS with 0.5% BSA was added to ˜50,000 cells suspended in 96-well plates. After a 30-minute incubation at 37° C., Lysis Buffer followed by luminescence reagents (Applied Biosystems) was added according to the manufacturers' procedures (Applied Biosystems Luminescence protocol: cAMP-Screen Direct System). Luminescence was quantitated using a TopCount liquid scintillation analyzer (PerkinElmer), and data was processed using Softmax software (Molecular Devices Corporation).
# [1] = SEC-SLS self-association of peptides in PBS (pH 7.5); type: physicochemical
# Procedure: The self-association poses a challenge to the development and manufacturing of a homogeneous therapeutic.
# Solution molecular weight of the peptides was measured by SEC-SLS. Briefly, peptide solutions in PBS (pH 7.5) at 0.4 to 2.0 mg/mL were fractionated over a Superdex peptide column (Amersham Pharmacia). The eluted peaks were monitored by static light scattering at 690 nm and solution molecular weight was determined at UV 280 nm using the Astra software package (Wyatt Inc.).
# [2] = CD spectra secondary structure of peptides; type: physicochemical; settings: 0.2 mg/mL in PBS, 25° C.
# Procedure: The secondary structures of tested peptides were determined using 0.2 mg/mL peptide solutions in PBS. Briefly, CD spectra were collected in triplicate at 1 nm intervals at 25° C. in 0.1 cm path length cell. Secondary structures were determined by fitting of the CD spectra using CD spectra software (CD Spectra Deconvolution software 2.1). All tested peptides contained peaks corresponding to the presence of alpha helices.
# [3] = Helical propensity analysis using TFE (CD at 222 nm); type: physicochemical; settings: 0.2 mg/mL in PBS (pH 7.5), MRE at 222 nm
# Procedure: In addition, trifluoroethanol (TFE) is known to induce helix formation in peptides (Soennichsen et al., Biochemistry 31: 8791 (1992)). Accordingly, helical propensity analysis using TFE was performed. Briefly, tested peptides were diluted to 0.2 mg/mL in PBS (pH 7.5) containing 0, 1, 5, 15, 33 or 50% TFE. CD spectra were collected and CD plots were generated after data averaging, buffer subtraction and curve smoothing. Helical propensity values were obtained from mean residue ellipticity (MRE) at 222 nm versus % TFE plots. The concentration of TFE that effected a 50% transformation of the CD spectrum at 222 nm was used as a measure of helical propensity.
# [4] = humans; cited from earlier work
# CD1 mice = experiment: Mucosal wet weight of small intestine after 10 daily subcutaneous injections; type: in vivo
# Source text: Afterwards, the mice were euthanized and the small intestines were removed, flushed with saline, and processed as described below.
# (§1) Specifically, 4 cm sections were harvested: (1) immediately distal to the pylorus (duodenum), (2) starting 2 cm distal of the ligament of Treitz (jejunum), and (3) immediately proximal to the cecum (ileum). The remaining small intestine from ˜6 cm distal of the ligament of Treitz to 4 cm proximal to the cecum was used to prepare mucosal scrapings. From the proximal and distal ends of the remnant, an equal distance was removed until a 15 cm section remained, the remnant was cut longitudinally, rinsed, and the mucosal layer was removed using the short end of a glass microscope slide. The wet weight of the intact intestinal segments and mucosa was measured.
# [5] = Pharmacokinetics in CD1 mice, TRF assay of active mimetibody; type: in vivo
# Source text: Blood was collected at different time points into citrate buffer containing protease inhibitors to minimize the possibility of ex vivo degradation and plasma was separated by centrifugation.
# (§2) A time resolved fluorescence (TRF) assay was used to measure active mimetibody. Active mimetibody reflects the intact N-terminus of the peptide still attached to the Fc region of the mimetibody.
# [6] = Pharmacokinetics in cynomolgus monkeys, TRF assay; type: in vivo; settings: 1 mg/kg intravenously
# Source text: as §2
# mice [7] = experiment: Pharmacodynamics: dosing-regimen study, intestinal weights, 11 days; type: in vivo
# Source text: as §1
# The duration of the study was 11 days and tissue was processed as described in Example 4.
# [8] = SEC-SLS analysis of mimetibodies (monomer/dimer); type: physicochemical; settings: purified from HEK 293E/HEK 293 expression
# mice [9] = experiment: Upper gastrointestinal transit, FITC-dextran method, normal mice; type: in vivo; settings: for upper gastrointestinal transit (FITC-dextran): single 4 mg/kg dose 4 days prior, FIG. 4, 4 mg/kg
# Procedure: On the day of study, upper gastrointestinal transit was measured using the FITC-dextran method. This method provides both, a measure of gastrointestinal transit and a readout of the pattern of distribution of the test meal along the gastrointestinal tract. Mice were fed a test meal of […] of FITC-dextran solution (5 mg/ml of 70,000 molecular weight dextran conjugated to fluorescein-isothiocyanate in 0.5% methylcellulose/deionized water) administered intragastrically by an 18 gauge curved feeding tube. Following oral administration of the FITC-dextran test meal, mice were returned to their home cages. It was shown that a 30 min test period was the optimum duration for detecting accelerated transit, while a 45 min test period was optimum for detecting delayed transit. Following the appropriate test period, mice were sacrificed by carbon dioxide exposure. The entire gastrointestinal tract from the lower esophageal sphincter to the terminal colon was removed. The bowel segments were opened along the mesenteric border. The tissue and luminal contents of the stomach, 10 equal segments of small intestine, the cecum, and 3 equal segments of colon were placed in individual Eppendorf tubes containing 1 ml of PBS. The tissue was vigorously mixed on a table-top vortex, and solid materials were pelleted by centrifugation. Aliquots of the cleared supernatant were read in duplicate on a 96-well fluorescence plate reader to quantify the magnitude of the fluorescent signal in each segment of bowel. These values were used to calculate the Geometric Center (GC), which is defined as the weighted average distribution of the fluorescent signal along the gastrointestinal tract: GC=Σ(% of total fluorescent signal per segment×segment number)/100. Higher values represent faster rates of transit on scale of 1 to 15. […] The mimetibody-induced shift in the distribution pattern of FITC-dextran is shown in the upper panel. […] The GC is calculated in the lower panel for statistical comparison.
compound,measurement,setting,value
CC[C@H](C)[C@H](NC(=O)[C@H](Cc1ccccc1)NC(=O)[C@H](CC(=O)O)NC(=O)[C@H](CCCNC(=N)N)NC(=O)[C@H](C)NC(=O)[C@H](C)NC(=O)[C@H](CC(C)C)NC(=O)[C@H](CC(N)=O)NC(=O)[C@H](CC(=O)O)NC(=O)[C@H](CC(C)C)NC(=O)[C@@H](NC(=O)[C@@H](NC(=O)[C@H](CC(N)=O)NC(=O)[C@H](CCSC)NC(=O)[C@H](CCC(=O)O)NC(=O)[C@H](CC(=O)O)NC(=O)[C@H](CO)NC(=O)[C@H](Cc1ccccc1)NC(=O)[C@H](CO)NC(=O)CNC(=O)[C@H](CC(=O)O)NC(=O)[C@H](C)NC(=O)[C@@H](N)Cc1c[nH]cn1)[C@@H](C)O)[C@@H](C)CC)C(=O)N[C@@H](CC(N)=O)C(=O)N[C@@H](Cc1c[nH]c2ccccc12)C(=O)N[C@@H](CC(C)C)C(=O)N[C@H](C(=O)N[C@@H](CCC(N)=O)C(=O)N[C@H](C(=O)N[C@@H](CCCCN)C(=O)N[C@H](C(=O)N[C@H](C(=O)N[C@@H](CC(=O)O)C(=O)O)[C@@H](C)O)[C@@H](C)CC)[C@@H](C)O)[C@@H](C)CC [SEQ ID NO: 1],stimulation of cAMP expression,mutated human GLP-2R,stimulated cAMP expression
same,self-association state,[1]; 0.4 mg/mL,monomer
same,SEC-SLS elution / self-association state,[1]; 1 mg/ml,overlapping dimer and monomer peaks
same,proportion of monomers,[1]; 2 mg/mL,about 20%
same,proportion of reversibly self-associated dimer,[1]; 2 mg/mL,about 80%
same,Helix (percentage of helical structure),[2],19.6%
same,Random coil (percentage),[2],37.9%
same,TFE required for helical transformation (helical propensity),[3],~16 % TFE
same,reported half-life,[4],7.2 ± 2 min
SEQ ID NO: 5: A2G GLP-2 IgG4 mimetibody; core HGDGSFSDEMNTILDNLAARDFINWLIQTKITDGSGGGSGTLVTVSSESKYGPPCPPCP,increase in mucosal wet weight vs control mimetibody,"CD1 mice; 0.8 mg/kg (0.26 nmole) daily s.c. 10 days, p<0.0001",statistically significant
same,increase in mucosal wet weight vs control mimetibody,"CD1 mice; 8 mg/kg (2.6 nmole) daily s.c. 10 days, p<0.0004",statistically significant
same,"mucosal wet weight (15 cm segment between jejunum and ileum), dose response","CD1 mice; daily s.c. 10 days, female CD1 mice, FIG. 2",dose dependent increase
same,effective in vivo dose lower than that of A2G GLP-2 peptide (molar basis),CD1 mice; mucosal weight model,50 fold
same,calculated half-life,"[5]; CD1 mice, 3 mg/kg intravenously or subcutaneously, TRF",26.5 h
same,half-life relative to GLP-2 peptide,[5]; mimetibody in mice vs reported GLP-2 peptide in humans,more than 200 fold
same,calculated half-life,[6],115 h
same,mucosal weight difference to control mimetibody,"mice [7]; 4 mg/kg every day or every other day, 11 day study, compared with once per week",more pronounced
same,mucosal weight compared to control mimetibody,"mice [7]; 4 mg/kg once per week, 11 day study",significantly increased mucosal weight
same,duodenum and jejunum section wet weight over control mimetibody,"mice [7]; 4 mg/kg, all regimens except for the single dose experiment",significant increase in weight
same,SEC-SLS association state of mimetibody,[8],dimer
same,upper gastrointestinal transit (FITC-dextran),mice [9]; listed as A2G GLP-2 mimetibody,significant acceleration of intestinal transit
same,upper gastrointestinal transit (FITC-dextran),mice [9]; listed as GLP-2 mimetibody,acceleration of upper gastrointestinal transit
same,Geometric Center (GC) of FITC-dextran,"mice [9]; single injection 4 days prior, 30 minute test, scale 1 to 15, normal mice GC=6",7.5
